Measured values reported in ChEMBL document CHEMBL1158270, “Triangulynes A-H and trangulynic acid, new cytotxic polyacetylenes from the marine sponge Pellina triangulata” (1996).

Legend:
Assay type in all cases: functional
MOLT-4 = assay: Cytotoxicity against human MOLT4 cells
K562 = assay: Cytotoxicity against human K562 cells
EKVX = assay: Cytotoxicity against human EKVX cells
HOP-92 = assay: Cytotoxicity against human HOP92 cells
MCF7 = assay: Cytotoxicity against human MCF7 cells
IGROV-1 = assay: Cytotoxicity against human IGROV1 cells
HOP-62 = assay: Cytotoxicity against human HOP62 cells
UACC-62 = assay: Cytotoxicity against human UACC62 cells
MDA-N = assay: Cytotoxicity against human MDA-N cells
A498 = assay: Cytotoxicity against human A498 cells
UACC-257 = assay: Cytotoxicity against human UACC257 cells
Malme-3M = assay: Cytotoxicity against human MALME-3M cells
SN12C = assay: Cytotoxicity against human SN12C cells
RPMI-8226 = assay: Cytotoxicity against human RPMI8226 cells
SK-MEL-5 = assay: Cytotoxicity against human SK-MEL-5 cells
[1] = read-out: pLC50 (the source's name) (converted)

Work on C#C[C@H](O)/C=C/CCCCCCCCCC/C=C\CCCCCCC[C@H](O)C#CC#CC#CCO [TRIANGULYNE A] yielded a GI50 (MOLT-4) of 209 nM, a CC50 (MOLT-4; [1]) of 67600 nM and a TGI (MOLT-4; read-out: pTGI (converted)) of 813 nM. The GI50 (K562) was 372 nM, the LC50 (K562) was 37200 nM and the TGI (K562; read-out: pTGI (converted)) was 2290 nM. For the same compound, the GI50 (EKVX) was 871 nM, the CC50 (EKVX; [1]) was 6760 nM and the TGI (EKVX; read-out: pTGI (converted)) was 2400 nM. For the same compound, the GI50 (HOP-92) was 324 nM, the CC50 (HOP-92; [1]) was 15100 nM and the TGI (HOP-92; read-out: pTGI (converted)) was 1200 nM. The GI50 (MCF7) was 1580 nM, the CC50 (MCF7; [1]) was 25700 nM and the TGI (MCF7; read-out: pTGI (converted)) was 6030 nM. For the same compound, the GI50 (IGROV-1) was 490 nM, the CC50 (IGROV-1; [1]) was 8130 nM and the TGI (IGROV-1; read-out: pTGI (converted)) was 1820 nM. The GI50 (HOP-62) was 1580 nM, the CC50 (HOP-62; [1]) was 75900 nM and the TGI (HOP-62; read-out: pTGI (converted)) was 5370 nM. For the same compound, the GI50 (UACC-62) was 229 nM, the CC50 (UACC-62; [1]) was 9120 nM and the TGI (UACC-62; read-out: pTGI (converted)) was 646 nM. It also gave a GI50 (MDA-N) of 240 nM, a CC50 (MDA-N; [1]) of 8510 nM and a TGI (MDA-N; read-out: pTGI (converted)) of 3090 nM. The GI50 (A498) was 525 nM, the CC50 (A498; [1]) was 5250 nM and the TGI (A498; read-out: pTGI (converted)) was 1580 nM. For the same compound, the GI50 (UACC-257) was 513 nM, the CC50 (UACC-257; [1]) was 8130 nM and the TGI (UACC-257; read-out: pTGI (converted)) was 2090 nM. It also gave a GI50 (Malme-3M) of 251 nM, an LC50 (Malme-3M) of 1910 nM and a TGI (Malme-3M; read-out: pTGI (converted)) of 646 nM. It also gave a GI50 (SN12C) of 1410 nM, a CC50 (SN12C; [1]) of 32400 nM and a TGI (SN12C; read-out: pTGI (converted)) of 11000 nM. The GI50 (RPMI-8226) was 30.9 nM, the LC50 (RPMI-8226) was 100000 nM and the TGI (RPMI-8226; read-out: pTGI (converted)) was 1000 nM. For the same compound, the GI50 (SK-MEL-5) was 72.4 nM, the CC50 (SK-MEL-5; [1]) was 479 nM and the TGI (SK-MEL-5; read-out: pTGI (converted)) was 200 nM.
